Data: PubChem BioAssay (NCI)
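Growth conditions: 96-well plates. Treatment: test compound, 48 hours, 5 concentrations. Analysis: linear interpolation between bracketing concentrations; unreached endpoints set to highest concentration. GI50: concentration for 50% inhibition of growth. TGI is the concentration that stops growth completely.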

Experiments:
Test in all cases: inhibition of tumour cell growth, NCI panel, 48 h
786-0 renal = system: 786-0 renal
A498 renal = system: A498 renal
A549 NSCLC = system: A549 NSCLC
ACHN renal = system: ACHN renal
BT-549 breast = system: BT-549 breast
CAKI-1 renal = system: CAKI-1 renal
COLO 205 colon = system: COLO 205 colon
DU-145 prostate = system: DU-145 prostate
EKVX NSCLC = system: EKVX NSCLC
HCC-2998 colon = system: HCC-2998 colon
HCT-116 colon = system: HCT-116 colon
HCT-15 colon = system: HCT-15 colon
HL-60(TB) leukemia = system: HL-60(TB) leukemia
HOP-62 NSCLC = system: HOP-62 NSCLC
HOP-92 NSCLC = system: HOP-92 NSCLC
HS 578T breast = system: HS 578T breast
HT29 colon = system: HT29 colon
IGROV1 ovarian = system: IGROV1 ovarian
K-562 leukemia = system: K-562 leukemia
KM12 colon = system: KM12 colon
LOX IMVI melanoma = system: LOX IMVI melanoma
M14 melanoma = system: M14 melanoma
MALME-3M melanoma = system: MALME-3M melanoma
MCF7 breast = system: MCF7 breast
MDA-MB-231 breast = system: MDA-MB-231 breast
MDA-MB-435 = system: MDA-MB-435
MOLT-4 leukemia = system: MOLT-4 leukemia
NCI-H226 lung = system: NCI-H226 lung
NCI-H23 lung = system: NCI-H23 lung
NCI-H460 lung = system: NCI-H460 lung
NCI-H522 lung = system: NCI-H522 lung
NCI/ADR-RES ovarian = system: NCI/ADR-RES ovarian
OVCAR-3 ovarian = system: OVCAR-3 ovarian
OVCAR-4 ovarian = system: OVCAR-4 ovarian
OVCAR-5 ovarian = system: OVCAR-5 ovarian
OVCAR-8 ovarian = system: OVCAR-8 ovarian
PC-3 prostate = system: PC-3 prostate
RPMI-8226 leukemia = system: RPMI-8226 leukemia
RXF 393 renal = system: RXF 393 renal
SF-268 CNS = system: SF-268 CNS
SF-295 CNS = system: SF-295 CNS
SF-539 CNS = system: SF-539 CNS
SK-MEL-2 melanoma = system: SK-MEL-2 melanoma
SK-MEL-28 melanoma = system: SK-MEL-28 melanoma
SK-MEL-5 melanoma = system: SK-MEL-5 melanoma
SK-OV-3 ovarian = system: SK-OV-3 ovarian
SN12C renal = system: SN12C renal
SNB-19 CNS = system: SNB-19 CNS
SNB-75 CNS = system: SNB-75 CNS
SR leukemia = system: SR leukemia
SW-620 colon = system: SW-620 colon
T-47D breast = system: T-47D breast
TK-10 renal = system: TK-10 renal
U251 CNS = system: U251 CNS
UACC-257 melanoma = system: UACC-257 melanoma
UACC-62 melanoma = system: UACC-62 melanoma
UO-31 renal = system: UO-31 renal

Molecule `COc1cc2nnn3c4ncccc4c(N=O)c3c2cc1OC` has a GI50 (786-0 renal) of 0.391 µM, a TGI (786-0 renal) of 2.48 µM and a GI50 (A498 renal) of 15.1 µM. The TGI (A498 renal) was 35.3 µM, the GI50 (A549 NSCLC) was 18.2 µM and the TGI (A549 NSCLC) was greater than 69.2 µM. It also gave a GI50 (ACHN renal) of 0.258 µM, a TGI (ACHN renal) of 2.15 µM and a GI50 (BT-549 breast) of 9.43 µM. The TGI (BT-549 breast) was 64.6 µM, the GI50 (CAKI-1 renal) was 0.131 µM and the TGI (CAKI-1 renal) was 1.27 µM. The GI50 (COLO 205 colon) was 8.21 µM, the TGI (COLO 205 colon) was 31.2 µM and the GI50 (DU-145 prostate) was 3.02 µM. The TGI (DU-145 prostate) was 12.5 µM, the GI50 (EKVX NSCLC) was 3.97 µM and the TGI (EKVX NSCLC) was greater than 66.6 µM. It also gave a GI50 (HCC-2998 colon) of 2.28 µM, a TGI (HCC-2998 colon) of 10.8 µM and a GI50 (HCT-116 colon) of 0.118 µM. The TGI (HCT-116 colon) was greater than 100 µM, the GI50 (HCT-15 colon) was 2.2 µM and the TGI (HCT-15 colon) was 21.1 µM. For the same molecule, the GI50 (HL-60(TB) leukemia) was 0.0506 µM, the TGI (HL-60(TB) leukemia) was greater than 100 µM and the GI50 (HOP-62 NSCLC) was 6.71 µM. For the same molecule, the TGI (HOP-62 NSCLC) was 16.8 µM, the GI50 (HOP-92 NSCLC) was 0.0657 µM and the GI50 (HS 578T breast) was 4.82 µM. For the same molecule, the TGI (HS 578T breast) was greater than 100 µM, the GI50 (HT29 colon) was 1.34 µM and the TGI (HT29 colon) was greater than 100 µM. The GI50 (IGROV1 ovarian) was 0.896 µM, the TGI (IGROV1 ovarian) was greater than 37 µM and the GI50 (K-562 leukemia) was 0.282 µM. It also gave a TGI (K-562 leukemia) greater than 100 µM, a GI50 (KM12 colon) of 2.46 µM and a TGI (KM12 colon) greater than 100 µM. For the same molecule, the GI50 (LOX IMVI melanoma) was 1.16 µM, the TGI (LOX IMVI melanoma) was greater than 100 µM and the GI50 (M14 melanoma) was 4.58 µM. It also gave a TGI (M14 melanoma) of 13 µM, a GI50 (MALME-3M melanoma) of 3.04 µM and a TGI (MALME-3M melanoma) of 17.2 µM. For the same molecule, the GI50 (MCF7 breast) was 0.327 µM, the TGI (MCF7 breast) was greater than 74.5 µM and the GI50 (MDA-MB-231 breast) was 4.09 µM. The TGI (MDA-MB-231 breast) was greater than 53.9 µM, the GI50 (MDA-MB-435) was 3.55 µM and the TGI (MDA-MB-435) was 32.7 µM. The TGI (MOLT-4 leukemia) was greater than 100 µM, the GI50 (NCI-H226 lung) was 6.91 µM and the TGI (NCI-H226 lung) was 44.4 µM. The GI50 (NCI-H23 lung) was 6.4 µM, the TGI (NCI-H23 lung) was 27.9 µM and the GI50 (NCI-H460 lung) was 3.64 µM. For the same molecule, the TGI (NCI-H460 lung) was 22.8 µM, the GI50 (NCI-H522 lung) was 3.04 µM and the TGI (NCI-H522 lung) was 28 µM. It also gave a GI50 (NCI/ADR-RES ovarian) of 0.91 µM, a TGI (NCI/ADR-RES ovarian) greater than 33.6 µM and a GI50 (OVCAR-3 ovarian) of 0.722 µM. The TGI (OVCAR-3 ovarian) was greater than 100 µM, the GI50 (OVCAR-4 ovarian) was 3.23 µM and the TGI (OVCAR-4 ovarian) was greater than 100 µM. For the same molecule, the GI50 (OVCAR-5 ovarian) was 5.83 µM, the TGI (OVCAR-5 ovarian) was greater than 64.6 µM and the GI50 (OVCAR-8 ovarian) was 1.77 µM. For the same molecule, the TGI (OVCAR-8 ovarian) was greater than 100 µM, the GI50 (PC-3 prostate) was 5.62 µM and the TGI (PC-3 prostate) was greater than 100 µM. The GI50 (RPMI-8226 leukemia) was 0.173 µM, the TGI (RPMI-8226 leukemia) was greater than 100 µM and the GI50 (RXF 393 renal) was 0.989 µM. It also gave a GI50 (SF-268 CNS) of 0.564 µM, a TGI (SF-268 CNS) of 19.3 µM and a GI50 (SF-295 CNS) of 4.99 µM. The TGI (SF-295 CNS) was 29.4 µM, the GI50 (SF-539 CNS) was 2.75 µM and the TGI (SF-539 CNS) was 9.15 µM. The GI50 (SK-MEL-2 melanoma) was 16.5 µM, the TGI (SK-MEL-2 melanoma) was greater than 68.1 µM and the GI50 (SK-MEL-28 melanoma) was 9.1 µM. The TGI (SK-MEL-28 melanoma) was greater than 100 µM, the GI50 (SK-MEL-5 melanoma) was 14.6 µM and the TGI (SK-MEL-5 melanoma) was 34 µM. It also gave a GI50 (SK-OV-3 ovarian) of 6.96 µM, a TGI (SK-OV-3 ovarian) of 41.7 µM and a GI50 (SN12C renal) of 2.54 µM. For the same molecule, the TGI (SN12C renal) was greater than 100 µM, the GI50 (SNB-19 CNS) was 9.75 µM and the TGI (SNB-19 CNS) was greater than 74 µM. It also gave a GI50 (SNB-75 CNS) of 2.59 µM, a TGI (SNB-75 CNS) of 40.1 µM and a GI50 (SR leukemia) of 0.0319 µM. For the same molecule, the GI50 (SW-620 colon) was 0.312 µM, the TGI (SW-620 colon) was greater than 100 µM and the GI50 (T-47D breast) was 0.317 µM. For the same molecule, the TGI (T-47D breast) was greater than 29.9 µM, the GI50 (TK-10 renal) was 7.98 µM and the TGI (TK-10 renal) was greater than 88.6 µM. For the same molecule, the GI50 (U251 CNS) was 0.777 µM, the TGI (U251 CNS) was greater than 39.9 µM and the GI50 (UACC-257 melanoma) was 8.56 µM. It also gave a TGI (UACC-257 melanoma) greater than 100 µM, a GI50 (UACC-62 melanoma) of 4.87 µM and a TGI (UACC-62 melanoma) of 24.5 µM. For the same molecule, the GI50 (UO-31 renal) was 0.89 µM and the TGI (UO-31 renal) was greater than 20.8 µM.
